pKd: −log10 of the molar value.
What was measured:
[1] = tested on: maximal electroshock-induced seizures (MES); assay: Maximal electroshock-induced seizures (MES) iv in mouse; format: in vivo; details: administered iv 10 min before the test, tonic hindlimb extensor response
Protocol: The ability of selected 2-methylpropanamide derivatives to block maximal electroshock-induced seizures (MES) was determined by the following procedure. Seizures were induced by application of current (50 mA, 60 pulses/sec, 0.8 msec pulse width, 1 sec duration, D.C.) using a Ugo Basile ECT device (model 7801). Mice were restrained by gripping the loose skin on their dorsal surface and saline-coated corneal electrodes were held lightly against the two cornea. […] A tonic seizure was defined as a hindlimb extension in excess of 90 degrees from plane of the body. The 2-methylpropanamides tested were administered iv to mice 10 min before the test procedure.

[2] = tested on: voltage-sensitive Na+ channels; assay: Electrophysiological assay: patch-clamp recordings of voltage-sensitive Na+ currents in acutely dissociated rat hippocampal neurons; format: cell-based
Protocol: Electrophysiological Assay
Cell preparation: Acute cultures of rat hippocamnpal neurons were prepared daily using a modification of procedures described previously (Kuo and Bean, Mol. Pharm. 46:716-725 (1994)). Briefly, hippocampi were isolated from 3-11 day old rat pup brains (Sprague-Dawley; Charles River) and were sectioned, by hand, into 0.5-1 mm thick transyerse slices (Whittemore and Koerner, Eur. J. Pharm. 192:435-438 (1991)). Slices were incubated for at least 30 min at room temperature (20-24° C.) in an oxygenated medium (124 mM NaCl, 3.3 mM KCl, 2.4 mM MgSO4, 2.5 mM CaCl2, 1.2 mM KH2PO4, 26 mM NaHCO3, pH=7.4) continuously bubbled with 5% CO2/95% O2. Prior to recording, 4-5 slices were transferred to an oxygenated dissociation medium (82 mM NaSO4, 30 mM K2SO4, 3 mM MgCl2, 2 mM HEPES, 26 mM NaHCO3, 0.001% phenol red, pH=7.4) containing 3 mg/mL protease XXIII (Sigma, St. Louis, Mo.) and incubated for 10-15 min at 37° C., while continuously bubbling with 5% CO2/95% O2. Enzymatic digestion was terminated by transferring the slices to dissociation medium without bicarbonate, supplemented with 1 mg/mL bovine serum albumin and 1 mg/mL trypsin inhibitor (Sigma, St. Louis, Mo.). Slices were then transferred to a 35 mm culture dish containing dissociation medium without bicarbonate, and triturized with a fire-polished glass Pasteur pipette to release single cells. […]
Patch-clamp recordings of voltage-sensitive Na^+ currents: Whole-cell voltage-clamp recordings were made using conventional patch-clamp technique (Hamill et al., Pfluegers Arch. 391:85-100 (1981)) with an Axopatch 200A amplifier (Axon Instruments, Foster City, Calif.). […] Currents were recorded at room temperature (22-25° C.), filtered at 5 kHz with 4-pole Bessel filter, digitized at 20-50-μs intervals, and stored using Digidata 1200 analog/digital interface with Pclamp6/Clampex software (Axon Instruments). […] The inhibitory potency of drugs was assessed by measuring reductions in the peak amplitude of […] currents induced by increasing concentrations of compounds tested. […]

| Compound | iv MES activity (number protected/number screened) [1] | inhibition of voltage-gated Na+ currents ([2]; acutely dissociated rat hippocampal neurons) | effect on Na+ currents activated from a holding membrane voltage of −100 mV ([2]; concentrations between 0.1-10 μM, holding voltage −100 mV) | pKd ([2]; inactivated Na+ channels, acutely dissociated rat hippocampal neurons, read-out: apparent antagonist dissociation constant (Kd) for inactivated Na+ channels) | melting point [°C] |
| --- | --- | --- | --- | --- | --- |
| CC(C)(NCc1ccc(Oc2ccc(F)cc2F)cc1)C(N)=O [2,4-difluorophenoxy, 2-(4-(2,4-Difluorophenoxy)benzylamino)-2-methylpropanamide] | 8/8 |  |  |  |  |
| CC(C)(NCc1ccc(OCc2ccccc2F)cc1)C(N)=O [2-(4-(2-Fluorobenzyloxy)benzylamino)-2-methyl-propanamide] |  | dose-dependent inhibition | very little effect | ~5.92 |  |
| CC(C)(NCc1ccc(Oc2ccc3c(c2)OCO3)cc1)C(N)=O [3,4-methylenedioxyphenoxy, 2-(4-(3,4-Methylenedioxyphenoxy)benzylamino)-2-methyl-propanamide] | 8/8 |  |  |  |  |
| CC(C)(NCc1ccc(Oc2ccc(F)cc2)cc1)C(N)=O [4-fluorophenoxy, 2-(4-(4-Fluorophenoxy)benzylamino)-2-methylpropanamide] | 8/8 |  |  |  | 103 to 106 |
| CC(C)(NCc1ccc(Oc2ccc3c(c2)CCC3)cc1)C(N)=O [Example 5-indanoxy, 2-(4-(5-Indanoxy)benzylamino)-2-methylpropanamide] | 1/8 |  |  |  | 81 to 83 |

Source: patent publication US6500825B2, “Substituted 2-aminoacetamides and the use thereof” (Euro-Celtique S.A., priority 1997, dated 2002)
